Results on one molecule are retold here after patent publication US20080139578A1, “Substituted piperizines for the treatment of pain” (priority 2006, published 2008).

Format in all cases: in vivo
The test system of one assay is Male Sprague Dawley rats. Put plainly: Rodent CFA model of inflammatory pain (mechanical hyperalgesia, Ugo Basile paw pressure). The settings on record: rat CFA model.
The subject of assay [1] is Male Sprague-Dawley (Charles River) rats. The experiment in a line: Capsaicin-induced allodynia model (von Frey filaments). The settings on record: rat. How it is done:
Male Sprague-Dawley (Charles River) rats were habituated to the von Frey stands for 4 hr the day prior to the testing day. Tactile allodynia was assessed using calibrated von Frey filaments (up-down method) before and 30, 60 and 120 min post capsaicin injection. Capsaicin (30 μg in 10 μl) was diluted in Ethanol:Tween80:Saline (20:7:73) and administered into the rat left paw. The test compound is administered P.O. at 3, 10 or 30 mg/kg (4 ml/kg) 30 min prior to capsaicin administration. Data are expressed as % inhibition=(post-treatment−post-vehicle)/(pre-capsaicin threshold−post-vehicle)×100. Statistic analysis: 2-way ANOVA (time and dose) and Bonferroni post-hoc analysis comparing each dose to vehicle.

For assay [2], the system named is rats (Sprague-Dawley, Harlan). The experiment in a line: Spared Nerve Ligation (SNL)-induced allodynia model (von Frey filaments). The settings on record: rat SNL model. How it is done:
For the neuropathic pain model, rats (Sprague-Dawley, Harlan) were anesthetized with isoflurane and were placed on a heating pad. Using aseptic techniques, the L5 spinal nerve was exposed and ligated. Muscle and skin were closed with 4-0 Polydiaxone and wound clips, respectively. Animals were tested for allodynia 4 weeks post SNL surgery. Only rats that developed allodynia as defined by a significant decrease in their mechanical threshold using von Frey filaments, were used for evaluating the compound. Tactile allodynia was assessed with calibrated von Frey filaments (Stoelting Co), using an up-down paradigm before and at 2 hr and 44 hr post-compound administration. Data are expressed as % reversal=(post-treatment−post-vehicle)/(pre-SNL threshold−post-vehicle)×100.

For `O=C(CC(c1ccccc1)c1ccccc1)N1CCNCC1` [Example 1, 1-(3,3-diphenylpropanoyl)piperazine], the reversal of hyperalgesia came to 17% with Male Sprague Dawley rats (3 mg/kg P.O., 3 hr post-dose); 26% with Male Sprague Dawley rats (3 mg/kg P.O., one hour post-dose); 39% in the assay on Male Sprague Dawley rats (10 mg/kg P.O., 3 hr post-dose); 43% in the assay with Male Sprague Dawley rats (10 mg/kg P.O., one hour post-dose); 44% in the assay with Male Sprague Dawley rats (30 mg/kg P.O., 3 hr post-dose); 63% in the assay with Male Sprague Dawley rats (30 mg/kg P.O., one hour post-dose). Besides, the “maximal percent inhibition of allodynia” value in assay [1] (3 mg/kg P.O. 30 min before capsaicin challenge) worked out at 33%; in assay [1] (10 mg/kg P.O. 30 min before capsaicin challenge), 46%; in assay [1] (30 mg/kg P.O. 30 min before capsaicin challenge), 89%. Further, the “maximal percent reversal of allodynia” value in assay [2] (3 mg/kg P.O.) came out at 11%; in assay [2] (10 mg/kg P.O.), 47%; in assay [2] (30 mg/kg P.O.), 47%.
